Experiments:
Assay type in all cases: biochemical
[1] = biological target: T1, RET wt (Homo sapiens, UniProt P07949); test: In vitro kinase activity assay (mobility shift assay), RET wild type; settings: ATP 16 μM, reaction time 60 min
T1 construct: purchased Carna 08-159
Protocol: (§1) The IC50 (half inhibitory concentration) values of the compounds were used as an indicator to evaluate the inhibitory effect of the compound on RET wild-type, RET mutant, TRKa, SRC, BTK and/or mutated BTK kinase.
(§2) Using the method of Mobility shift assay, the compounds were tested for inhibitory activity against the following kinases: RET wild type, RET mutant, TRKa, SRC, BTK and/or mutated BTK. The initial concentration of the test compound was 1000 nM, 3-fold dilution, 10 concentrations, detected in a well for each concentration.
(§3) 20 mM hydroxyethylpiperazineethanesulfonic acid (Hepes) (pH 7.5) buffer, 10 mM MgCl2, 1 mM ethylene glycol bis(aminoethyl ether)tetraacetic acid (EGTA), 0.02% polyoxyethylene lauryl ether (Brij35), 0.02 mg/ml […] (BSA), 0.1 mM Na3VO4, 2 mM dithiothreitol (DTT), 1% DMSO.
(§4) The test compounds were dissolved in 100% dimethyl sulfoxide (DMSO) system, and prepared as 10 mM for use, and stored in a nitrogen cabinet away from light.
(§5) • (1) Preparing 1× kinase reaction buffer. • (2) Preparation of compound concentration gradient: the initial concentration of the compounds was 1000 nM, which was diluted as 100-fold final concentration of solution in 100% dimethyl sulfoxide (DMSO) in a 384-well plate. The compound was accurately 3-fold diluted with the kinase buffer solution, 10 concentrations in total, and the final concentration was 0.0508 nM. The 100-fold final concentration of solution in 100% dimethyl sulfoxide (DMSO) was obtained by dilution in 384 source plate. The liquid separator Echo 550 was used to transfer 250 nl of 100-fold final concentration of compound to the target 384 well plate. 250 nl of DMSO was added to the positive and negative control wells. • (3) 2.5-fold final concentration of kinase solution was prepared by the 1× kinase buffer. • (4) 10 4, of 2.5-fold final concentration of kinase solution was added to the compound well and the positive control well, respectively; 10 4, of 1× kinase buffer was added to the negative control well. • (5) After centrifuging at 1000 rpm for 30 second, the reaction plate was shaken and mixed, followed by incubation at room temperature for 10 min. • (6) a mixed solution of 25/15-fold final concentration of adenosine triphosphate (ATP) and kinase substrate was prepared by 1× kinase buffer. • (7) The mixed solution (15 μL) of 25/15-fold final concentration of adenosine triphosphate (ATP) and substrate was added to initiate the reaction. • (8) 384-well plate was centrifuged at 1000 rpm for 30 second, shaken and mixed well, and then incubated at room temperature for 30-240 min. • (9) After stopping the kinase reaction, the plate was centrifugated at 1000 rpm for 30 second, shaken and mixed well. • (10)The conversion rate was read with Caliper EZ Reader.
(§6) wherein Conversion%_sample is the conversion rate reading of the sample; Conversion%_min: the mean value of negative control wells, representing the conversion rate reading of wells without enzymes; Conversion%_max: the mean value of positive control wells, representing the conversion rate reading of wells without compound inhibition.
(§7) The log value of concentration was taken as the X axis, and the percentage inhibition rate was taken as the Y axis. Graphpad 6.0 analysis software was used to fit the dose-response curve, so as to obtain the IC50 value of each compound on the enzyme activity

[2] = biological target: T2, RET V804M (Homo sapiens, UniProt P07949, V804M); test: In vitro kinase activity assay (mobility shift assay), RET V804M; settings: ATP 5.4 μM, reaction time 60 min
T2 construct: purchased signalchem R02-12GG
T2 sequence (P07949 29-1114 V804M): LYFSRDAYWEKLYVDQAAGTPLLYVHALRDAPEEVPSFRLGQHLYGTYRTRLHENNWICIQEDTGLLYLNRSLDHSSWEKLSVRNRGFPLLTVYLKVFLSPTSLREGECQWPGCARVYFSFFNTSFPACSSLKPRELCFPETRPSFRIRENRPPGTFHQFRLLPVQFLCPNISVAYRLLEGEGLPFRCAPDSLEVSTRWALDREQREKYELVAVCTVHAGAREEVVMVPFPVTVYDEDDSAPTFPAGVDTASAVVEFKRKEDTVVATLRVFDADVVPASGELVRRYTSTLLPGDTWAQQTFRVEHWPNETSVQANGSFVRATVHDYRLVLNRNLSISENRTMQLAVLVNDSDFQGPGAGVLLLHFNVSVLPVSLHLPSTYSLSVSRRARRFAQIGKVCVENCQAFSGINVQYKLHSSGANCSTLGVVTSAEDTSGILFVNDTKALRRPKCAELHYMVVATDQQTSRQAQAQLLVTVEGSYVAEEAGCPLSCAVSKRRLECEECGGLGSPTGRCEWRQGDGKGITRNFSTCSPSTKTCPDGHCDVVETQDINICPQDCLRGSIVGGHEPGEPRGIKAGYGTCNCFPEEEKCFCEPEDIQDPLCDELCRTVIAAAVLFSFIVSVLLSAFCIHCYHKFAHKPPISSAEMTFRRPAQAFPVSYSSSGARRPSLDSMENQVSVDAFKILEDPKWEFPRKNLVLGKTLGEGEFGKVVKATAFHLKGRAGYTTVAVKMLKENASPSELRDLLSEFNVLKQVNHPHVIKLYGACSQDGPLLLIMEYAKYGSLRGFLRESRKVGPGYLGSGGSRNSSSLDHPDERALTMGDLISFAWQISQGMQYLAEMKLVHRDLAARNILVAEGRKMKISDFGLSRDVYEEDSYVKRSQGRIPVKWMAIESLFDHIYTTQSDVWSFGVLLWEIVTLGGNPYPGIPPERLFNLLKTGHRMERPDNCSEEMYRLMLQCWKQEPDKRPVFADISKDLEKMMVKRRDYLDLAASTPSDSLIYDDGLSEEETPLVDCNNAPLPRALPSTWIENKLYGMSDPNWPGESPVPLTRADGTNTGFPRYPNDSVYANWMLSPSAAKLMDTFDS
Protocol: as §1, §2, §3, §4, §5, §6, §7

[3] = biological target: T3, RET G810R (Homo sapiens, UniProt P07949, G810R); test: In vitro kinase activity assay (mobility shift assay), RET G810R; settings: ATP 201 μM, reaction time 4 h
T3 construct: purchased Proqinase 1724-0000-1
T3 sequence (P07949 29-1114 G810R): as the sequence (P07949 29-1114 V804M) above, with M776V, G782R counted along it
Protocol: as §1, §2, §3, §4, §5, §6, §7

T1 sequence (P07949 29-1114): as the sequence (P07949 29-1114 V804M) above, with M776V counted along it

| IC50 [1] [nM] | IC50 [2] [nM] | IC50 [3] [nM] | Compound |
| --- | --- | --- | --- |
| 49 | 281 | > 1000 | CCNC(=O)Cc1ccc(-c2c3nc4c(cnn4c2N)C(=O)NC[C@H](C)Oc2ncc(F)cc2CN3)cc1 [Example 83, 2-(4-((S, 1^3E, 1^4E)-1^7-4^5-fluoro-6-methyl-9-oxo-5-oxa-2,8-diaza-1(5,3)-pyrazolo[1,5-a]pyrimidin-4(3,2)-pyridinacyclononaphan-1^6-yl)phenyl)-N-ethylacetamide] |
| 89 | 384 | > 1000 | CCN(C)C(=O)Nc1ccc(-c2c3nc4c(cnn4c2N)C(=O)NC[C@H](C)Oc2ncc(F)cc2CN3)cc1 [Example 81, 3-(4-((S, 1^3E,VE)-1^7-amino-4^5-fluoro-6-methyl-9-oxo-5-oxa-2,8-diaza-1(5,3)-pyrazolo[1,5-a]pyrimidin-4(3,2)-pyridinacyclononaphan-1^6-yl)-phenyl)-1-ethyl-1-methylure a] |
| 1.19 | 3.58 | 35.7 | CCCOC(=O)Nc1ccc(-c2c3nc4c(cnn4c2N)C(=O)NC[C@H](C)Oc2ncc(F)cc2CN3)cc1 [Example 67, propyl (4-((S, 1^3E, 1^4E)-1^7-amino-4^5-fluoro-6-methyl-9-oxo-5-oxa-2,8-diaza-1(5,3)-pyrazolino [1,5-a]pyrimidin-4(3,2)-pyridinacyclononaphan-1^6-yl)-phenyl)carbamate] |
| 1.1 | 9.5 | 138 | C[C@H]1CNC(=O)c2cnn3c(N)c(-c4cnn(C)c4)c(nc23)NCc2cc(F)cnc2O1 [Example 82, (S, 1^3E, 1^4E)-1^7-amino-4^5-fluoro-6-methyl-1^6-(1-methyl-1H-pyrazol-4-yl)-5-oxa-2,8-diaza-1(5,3)-pyrazolo[1,5-a]pyrimidin-4(3,2)-pyridinacyclononaphan-9-one] |
| 2.4 | 38 | 130 | COc1ccc(-c2c3nc4c(cnn4c2N)C(=O)NC[C@H](C)Oc2ncc(F)cc2CN3)cc1 [Example 59, (S, 1^3E, 1^4E)-1^7-amino-4^5-fluoro-1^6-(4-methoxyphenyl)-6-methyl-5-oxo-2,8-diaza-1(5,3)-pyrazolo[1,5-a]pyrimidin-4(3,2)-pyridinacyclononaphan-9-one] |

Second part, the compound before the results:

| Compound | IC50 [1] [nM] | IC50 [2] [nM] | IC50 [3] [nM] |
| --- | --- | --- | --- |
| C[C@H]1CNC(=O)c2cnn3cc(-c4ccccc4)c(nc23)NCc2cc(Nc3ccccn3)cnc2O1 [Compound 48, (S, 1^3E, 1^4E)-6-methyl-1^6-phenyl-4^5-(pyridin-2-ylamino)-5-oxa-2,8-diaza-1(5,3)-pyrazolo[1,5-a]pyrimidina-4(3,2)-pyridinacyclononaphan-9-one] | > 1000 | > 1000 | > 1000 |
| C[C@H]1CNC(=O)c2cnn3c(N)c(-c4ccc(NC(=O)OCC(F)(F)F)cc4)c(nc23)NCc2cc(F)cnc2O1 [Example 68, trifluoroethyl (4-((S, 1^3E, 1^4E)-1^7-amino-4^5-fluoro-6-methyl-9-oxo-5-oxa-2,8-diaza-1(5,3)-pyrazolino [1,5-a]pyrimidin-4(3,2)-pyridinacyclononaphan-1^6-yl)-phenyl)carbamate] | 6.2 | 15 | 155 |
| C[C@H]1CNC(=O)c2cnn3cc(-c4ccccc4)c(nc23)NCc2cc(Cl)cnc2O1 [Compound 47, (S, 1^3E, 1^4E)-4^5-chloro-6-methyl-1^6-phenyl-5-oxa-2,8-diaza-1(5,3)-pyrazolo[1,5-a]pyrimidina-4(3,2)-pyridinacyclononaphan-9-one] | 26 | > 1000 | > 1000 |
| Nc1c(-c2ccccc2)c2nc3c(cnn13)C(=O)NCCCc1ncc(F)cc1CN2 [Example 73, (1^3E, 1^4E)-1^7-(amino)-4^5-fluoro-1^6-phenyl-2,8-aza-1(5,3)-pyrazolo[1,5-a]pyrimidinyl-4(3,2)-pyridinacyclononaphan-9-one] | 4.4 | 137 | 238 |

— patent publication US20230219978A1, “COMPOUND HAVING MACROCYCLIC STRUCTURE AND USE THEREOF” (SCINNOHUB PHARMACEUTICAL CO., LTD, priority 2020, published 2023)
